For orientation: IC50 means the concentration that gives 50% inhibition. Read a low IC50 as higher potency.

The values below come from PMC4657899, “Design, Synthesis and In Vitro Activity of Anticancer Styrylquinolines. The p53 Independent Mechanism of Action” (PLoS ONE, 2015).

The subject of one experiment is HCT116 (p53+/+). The experiment is described as follows: MTS anti-proliferative assay, HCT116 (p53+/+). Type of experiment: cell-based, human. The following applies: Homo sapiens, HCT-116, 72 h incubation, mean ± SD. Here is the method:
(§1) The human colon adenocarcinoma cell line HCT116 along with wild type p53 (p53^+/+) were obtained from the ATCC. The normal human fibroblast cell line GM 07492 and HCT116 with a p53 deletion (p53^-/-) were kindly provided by prof. M. Rusin from Maria Sklodowska-Curie Memorial Cancer Center and Institute of Oncology in Gliwice, Poland. Cells were grown as monolayer cultures in 75 cm^2 flasks (Nunc) in Dulbecco’s modified Eagle’s medium with an antibiotic gentamicin (200 μL/100 mL medium). DMEM for HCT116 were supplemented with 12% heat-inactivated fetal bovine serum (Gibco) and for GM 07492 with 15% fetal bovine serum (Gibco). Cells were cultured under standard conditions at 37°C in a humidified atmosphere at 5% CO2.
(§2) The cells were seeded in 96-well plates 24 h before the addition of the compounds that were tested. The assay was performed following a 72 h incubation with varying concentrations of the agents that were tested. The results were calculated as IC50 values (using GraphPad Prism 5). Each individual compound was tested in triplicate in a single experiment with each experiment being repeated three times. After a 72 h incubation with the compounds that were tested, 20 μL of The CellTiter 96®AQueous One Solution—MTS (Promega) solution was added to each well (with 100 μL DMEM without phenol red) and incubated for 1 h at 37°C. The optical densities of the samples were analyzed at 490 nm. Results were expressed as a percentage of the control.
In general terms: Tetrazolium assays rely on reduction of a dye to a coloured formazan, in cell work by metabolically active cells.

In experiment [1] the test system is caspase-3 and -7 in HCT116 (p53+/+) cells. Nature of the experiment: Caspase-Glo 3/7 assay, HCT116 (p53+/+). The following applies: IC50 concentration, 48 h, relative to doxorubicin. The format is cell-based, human. Here is the method: (§3) To measure caspase-3 and -7 activities, a luminescent Caspase-Glo 3/7 assay was performed. HCT116 (p53^+/+) and (p53^-/-) cells were seeded onto black 96-well plates at a density of 3,500 cells/well. […] After 48 h a Caspase-Glo 3/7 Assay (Promega) was performed according to the manufacturer’s instructions. After adding 100 μL of Caspase3/7 GloReagent, cells were incubated for 2.5 h at room temperature. The luminescence was measured using a multi-plate reader (Synergy 4, Bio Tek) with an integration time of 1 second per well. The experiments were performed in duplicate.

The test system of the next experiment is HCT116 (p53-/-). Nature of the experiment: MTS anti-proliferative assay, HCT116 (p53-/-). The format is cell-based, human. The following applies: Homo sapiens, HCT-116; MTS, 72 h incubation, mean ± SD. On the procedure:
as §1, §2

A further experiment has as its system Calf-thymus DNA (CT-DNA). The experiment is described as follows: Spectrophotometric DNA binding (intercalation) study with CT-DNA. Here is the method: For the DNA binding studies, Calf-thymus DNA (CT-DNA) was purchased from Sigma Aldrich. The lyophilized CT-DNA was dissolved in 10 mM Tris-HCl, pH 7.9, mixed gently and left overnight at 4°C. Then, the concentration of CT-DNA was determined from the absorbance at 260 nm using an extinction coefficient of 6600 M^-1cm^-1. […] Afterwards, 18 μM CT-DNA was added to the prepared solutions and were incubated for 1.5 h at 37°C with occasional vortexing. Absorption spectra were measured using a Hitachi U-2900 spectrophotometer in range of 200–600 nm. All absorption spectra were imported and compared in OriginPro 8.0.

The subject of another experiment is GM 07492. Nature of the experiment: MTS cytotoxicity assay, normal fibroblasts GM 07492. The format is cell-based. The settings on record: Fibroblast, 72 h incubation, normal human fibroblasts, mean ± SD. On the procedure:
as §1, §2

The test system of the next experiment is HCT116 p53-/- cells. More on the design: method as in PMID 12027451. The following applies: cited from earlier work.
Experiment [2] has as its system caspase-3 and -7 in HCT116 (p53-/-) cells. Nature of the experiment: Caspase-Glo 3/7 assay, HCT116 (p53-/-). The format is cell-based, human. The settings on record: IC50 concentration, 48 h. Here is the method:
as §3

Where [3] appears, read: 18 μM CT-DNA, CP-31398 absorption band 350.

Structures are written as SMILES.

On to `COc1ccc(/C=C/c2nc(NCCCN(C)C)c3ccccc3n2)cc1` [CP-31398], for which the half-maximal inhibitory concentration (IC50) in the experiment on HCT116 (p53+/+) was 18.6 ± 0.92 µM; in the experiment on HCT116 (p53-/-) it was 26.3 ± 1.41 µM; with GM 07492 it was 12.3 ± 0.54 µM. For the same compound, the “Caspase-3/7 activity in wild type cells” value in experiment [1] is listed as “two times higher than doxorubicin”. Moreover, the “% hypochromism” value in the experiment on Calf-thymus DNA (CT-DNA) (18 μM CT-DNA, 1.5 h 37°C, Tris-HCl pH 7.9, at the (first) absorption band (CP-31398: 312)) is on record as 41,4%. Also, the “% hypochromism, second absorption band” value in the experiment with Calf-thymus DNA (CT-DNA) (setting [3]) is reported as 37,4%. In the experiment with Calf-thymus DNA (CT-DNA) (setting [3]), the “Δε, second absorption band” value is recorded as 1693,3 M−1 cm−1. Moreover, in the experiment with Calf-thymus DNA (CT-DNA) (18 μM CT-DNA, at the (first) absorption band (CP-31398: 312)), the Δε was 1515,6 M−1 cm−1. Besides, in the experiment with Calf-thymus DNA (CT-DNA) (S3 Table, 18 μM CT-DNA), the “shift of the wavelength of maximum absorption, alone vs DNA-bound” value came to 0. For the same compound, the Changes in absorbance entry in the experiment with Calf-thymus DNA (CT-DNA) (S3 Table, with CT-DNA) is reported as “hypochromism”. Also, the “activity against HCT116 p53-/- cells versus wild-type (p53+/+)” value in the experiment on HCT116 p53-/- cells is recorded as “several times less active”. The “Caspase-3/7 activity in p53-/- cells” value in experiment [2] is “did not increase the activity of caspases”.
